Assays:
[1] = biological target: T1, class II fructose 1,6-bisphosphate aldolase (MtFBA) (Mycobacterium tuberculosis, UniProt P9WQA3); assay: biochemical
[2] = biological target: T1, class II fructose 1,6-bisphosphate aldolase (MtFBA); assay: biochemical; assay type: binding

T1 sequence (P9WQA3 whole entry): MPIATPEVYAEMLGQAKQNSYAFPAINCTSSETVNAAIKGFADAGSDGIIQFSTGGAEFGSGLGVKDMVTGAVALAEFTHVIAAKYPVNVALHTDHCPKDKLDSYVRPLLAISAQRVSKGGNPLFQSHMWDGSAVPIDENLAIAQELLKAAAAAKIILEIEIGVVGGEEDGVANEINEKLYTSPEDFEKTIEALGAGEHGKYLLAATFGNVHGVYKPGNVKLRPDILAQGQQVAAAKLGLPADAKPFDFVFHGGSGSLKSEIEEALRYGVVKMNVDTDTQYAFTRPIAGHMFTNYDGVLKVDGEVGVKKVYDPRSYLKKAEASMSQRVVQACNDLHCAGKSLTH

Structure (SMILES)	Ki [1] [µM]	Kd [2] [nM]
O=C(CO)COP(=O)(O)O [DHAP, dihydroxyacetone phosphate]	238 ± 20	
O=C(COP(=O)(O)O)NO [PGH, phosphoglycolohydroxamate]		21.1 ± 0.2
